Where two headings read alike, the source gives them in different places.
Key:
[1] = target: T1, GRK2 (Homo sapiens, UniProt P25098); assay: ADPGlo GRK2 Inhibition Assay (Example 8); assay type: biochemical; conditions: read-out: A: Enzymatic GRK2: IC50 (nM) (Example 8)
T1 construct: purchased SignalChem A14-10G
T1 sequence (P25098 1-689): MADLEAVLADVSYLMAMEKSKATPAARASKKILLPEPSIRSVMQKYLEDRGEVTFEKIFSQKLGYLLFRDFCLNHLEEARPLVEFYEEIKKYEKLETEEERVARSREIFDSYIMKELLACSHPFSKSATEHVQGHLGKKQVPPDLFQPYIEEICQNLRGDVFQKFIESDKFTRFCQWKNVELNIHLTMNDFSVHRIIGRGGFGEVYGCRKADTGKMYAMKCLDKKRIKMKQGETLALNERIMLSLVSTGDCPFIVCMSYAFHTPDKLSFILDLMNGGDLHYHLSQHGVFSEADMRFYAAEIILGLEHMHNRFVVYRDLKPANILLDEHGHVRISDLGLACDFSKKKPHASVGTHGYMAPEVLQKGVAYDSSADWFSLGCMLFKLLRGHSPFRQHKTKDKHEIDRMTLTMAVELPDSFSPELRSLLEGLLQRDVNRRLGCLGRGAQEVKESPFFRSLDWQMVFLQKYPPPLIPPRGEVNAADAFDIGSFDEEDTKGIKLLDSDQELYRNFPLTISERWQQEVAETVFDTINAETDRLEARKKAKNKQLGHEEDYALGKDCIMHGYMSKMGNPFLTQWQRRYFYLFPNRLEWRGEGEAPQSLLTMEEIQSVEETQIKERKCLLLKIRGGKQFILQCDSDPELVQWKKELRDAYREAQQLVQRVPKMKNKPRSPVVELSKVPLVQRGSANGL
How it was run: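 GRK2 (15 nM 2× enzyme solution) was preincubated 15 min with compound, then reacted 180 min at room temperature with 2× mix of 20 μM ATP plus GRKtide in HEPES pH 7.5, MgCl2, Tween-20, DTT. ADP was detected by ADP-Glo luminescence. Percent inhibition was normalised to enzyme and no-enzyme controls, with dose-response curves from threefold dilutions starting at 100 μM.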

[2] = system: PAXF1657 control empty vector cell line; assay: 7-day proliferation assay, PAXF1657 control empty vector cell line (Example 9); assay type: cell-based; conditions: 168 h; Cell Line: PAXF1657 empty vector (EV) cell line; 7-day; read-out: C: 7-day proliferation assay: IC50 GeoMean
How it was run: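 Read-out is CellTiter-Glo luminescence after 7 days of continuous exposure, with compound re-dosed in fresh medium at day 3. Cells were seeded at 500/well and treated across 30 μM-0.0002 μM (10 points, 0.3% DMSO); baseline viability plates were read at compound addition.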

[3] = Enzyme Assay A, ADPGlo (Example 8)

| Compound | IC50 ([1]; ADPGlo GRK2 enzyme assay) | IC50 [2] | IC50 [1, 3] |
| --- | --- | --- | --- |
| Cn1c(CNc2cccc(C(=O)NCc3ccccc3C(F)(F)F)c2)nnc1-c1ccncc1F | 39.1 nM | > 2320 nM | – |
| CCc1cccnc1CNC(=O)c1cccc(NCc2nnc(-c3ccncn3)n2C)c1 | 22.6 nM | 4510 nM | – |
| Cc1ccc(C)c(CNC(=O)c2cccc(NCc3nnc(-c4ccncn4)n3C)c2)n1 | 11.2 nM | > 30000 nM | – |
| COCCOc1ccc(CNC(=O)c2cccc(NCc3nnc(-c4ccncn4)n3C)c2)cc1 | – | > 14200 nM | 20.4 nM |
| C[C@H](NC(=O)c1cccc(NCc2nnc(-c3ccncc3)n2C)c1)c1ncccc1Cl | 2.97 nM | > 1850 nM | – |
| C[C@H](NC(=O)c1cccc(NCc2nnc(-c3ccncc3F)n2C)c1)c1ncccc1Cl | 52.8 nM | 1030 nM | – |
| Cn1c(CNc2cccc(C(=O)NCc3ccc(C[S+](C)[O-])cc3)c2)nnc1-c1ccncn1 (stereo not drawn) | – | > 10000 nM | 170 nM |
| C#Cc1ccc(OS(=O)(=O)F)cc1CNC(=O)c1cccc(NCc2nnc(-c3ccncc3)[nH]2)c1 | – | 7440 nM | 28.4 nM |
| Cn1c(CNc2cccc(C(=O)NC(CO)c3ccc(F)cc3)c2)nnc1-c1ccncn1 (stereo not drawn) | – | > 30000 nM | 14 nM |
| Cn1c(CNc2cccc(C(=O)N[C@H]3COc4cc(F)ccc43)c2)nnc1-c1ccncc1 | – | > 7490 nM | 6.81 nM |
| O=C(NCc1ncco1)c1cccc(NCc2nnc(-c3ccncc3)[nH]2)c1 | – | > 10000 nM | 25 nM |
| CC(NC(=O)c1cccc(NCc2nnc(-c3ccncn3)n2C)c1)c1cn[nH]c1 (stereo not drawn) | – | 16800 nM | 13 nM |
| Cn1c(CNc2cccc(C(=O)NCc3cccc(OCC(F)F)c3)c2)nnc1-c1ccncn1 | – | > 10000 nM | 43 nM |
| Cn1c(CNc2cccc(C(=O)NC(CO)c3cccc(C(F)(F)F)c3)c2)nnc1-c1ccncn1 (stereo not drawn) | – | > 10000 nM | 34 nM |
| O=C(N[C@H]1COCc2c(Cl)cccc21)c1cccc(NCc2nnc(-c3ccncc3)n2CCO)c1 | – | > 30000 nM | 7.18 nM |
| O=C(NC1CCCn2ncnc21)c1cccc(NCc2nnc(-c3ccncc3)[nH]2)c1 (stereo not drawn) | – | > 10000 nM | 20 nM |
| CC(NC(=O)c1cccc(NCc2nnc(-c3ccncn3)n2C)c1)c1ccccn1 (stereo not drawn) | – | 522 nM | 29 nM |
| CCC(NC(=O)c1cccc(NCc2nnc(-c3ccncn3)n2C)c1)c1ccccc1OCC(=O)NC (stereo not drawn) | 67.2 nM | > 27800 nM | – |
| Cn1c(CNc2cccc(C(=O)NCc3ccccc3CO)c2)nnc1-c1ccncn1 | 18.4 nM | 1560 nM | – |
| CC1Oc2ccccc2C1NC(=O)c1cccc(NCc2nnc(-c3ccncn3)n2C)c1 (stereo not drawn) | 7.43 nM | 1790 nM | – |
| Cn1c(CNc2cccc(C(=O)NCc3ccncc3C(F)(F)F)c2)nnc1-c1ccncn1 | – | > 10000 nM | 33 nM |

| Compound | IC50 ([1]; ADPGlo GRK2 enzyme assay) | IC50 [2] | IC50 [1, 3] |
| --- | --- | --- | --- |
| CCc1cnccc1CNC(=O)c1cccc(NCc2nnc(-c3ccncc3)n2CCO)c1 | 14.3 nM | > 30000 nM | – |
| Cn1cc(C(NC(=O)c2cccc(NCc3nnc(-c4ccncn4)n3C)c2)c2ccccc2)cn1 (stereo not drawn) | – | 66.4 nM | 41 nM |
| Cn1c(CNc2cccc(C(=O)NCc3ccc(F)cc3)c2)nnc1-c1ccncn1 | – | 2160 nM | 19 nM |
| Cn1c(CNc2cccc(C(=O)NCc3c(Cl)cncc3Cl)c2)nnc1-c1ccncn1 | – | 4320 nM | 31 nM |
| COc1cccc([C@H](C)NC(=O)c2cccc(NCc3nnc(-c4ccncn4)n3CCO)c2)c1 | 2.41 nM | 30.7 nM | – |
| Cc1cc(C)c(CNC(=O)c2cccc(NCc3nnc(-c4ccncn4)n3C)c2)cn1 | 17.8 nM | 803 nM | – |
| CCCn1c(CNc2cccc(C(=O)NCc3c(F)cccc3S(=O)(=O)NC)c2)nnc1-c1ccncn1 | – | > 3200 nM | 22.2 nM |
| O=C(NCc1ccncc1)c1cccc(NCc2nnc(-c3ccncc3)[nH]2)c1 | – | 5720 nM | 12 nM |
| Cn1c(CNc2cccc(C(=O)NCc3cccc4c3CCNC4)c2)nnc1-c1ccncn1 | 18.4 nM | > 30000 nM | – |
| COc1ccc(C)nc1CNC(=O)c1cccc(NCc2nnc(-c3ccncn3)n2C)c1 | 67.5 nM | > 12400 nM | – |
| Cc1ccc(C#N)cc1CNC(=O)c1cccc(NCc2nnc(-c3ccncc3)n2CCO)c1 | 4.82 nM | > 4600 nM | – |
| COc1nc(C)ccc1CNC(=O)c1cccc(NCc2nnc(-c3ccncn3)n2C)c1 | 30.1 nM | > 30000 nM | – |
| Cn1c(CNc2cccc(C(=O)NC3CC(=O)c4ccccc43)c2)nnc1-c1ccncn1 (stereo not drawn) | 19 nM | 867 nM | – |
| Cn1c(CNc2cccc(C(=O)NC3C(=O)NCc4ccccc43)c2)nnc1-c1ccncn1 (stereo not drawn) | 38.1 nM | > 30000 nM | – |
| Cn1c(CNc2cccc(C(=O)NC3(c4cccnc4)CC3)c2)nnc1-c1ccncn1 | – | 583 nM | 200 nM |
| COC[C@H](NC(=O)c1cccc(NCc2nnc(-c3ccncn3)n2C)c1)c1cccnc1 | – | 6110 nM | 46 nM |
| Cn1c(CNc2cccc(C(=O)N[C@H]3COc4cc(F)ccc43)c2)nnc1-c1ccncn1 | – | > 30000 nM | 9.03 nM |
| Cn1c(CNc2cccc(C(=O)N[C@@H]3CCOc4c(Cl)cccc43)c2)nnc1-c1ccncc1 | – | > 865 nM | 27.5 nM |
| C#Cc1cc(CNC(=O)c2cccc(NCc3nnc(-c4ccncc4)[nH]3)c2)cc(OS(=O)(=O)F)c1 | – | 10800 nM | 34.9 nM |
| Cc1csc(C2(NC(=O)c3cccc(NCc4nnc(-c5ccncn5)n4C)c3)CCC2)n1 | – | 445 nM | 140 nM |
| CN(CCO)S(=O)(=O)c1ccccc1CNC(=O)c1cccc(NCc2nnc(-c3ccncn3)n2C)c1 | 42 nM | > 11800 nM | – |

| Compound | IC50 ([1]; ADPGlo GRK2 enzyme assay) | IC50 [2] | IC50 [1, 3] |
| --- | --- | --- | --- |
| Cn1c(CNc2cccc(C(=O)NC(C)(C)c3ccncc3)c2)nnc1-c1ccncn1 | – | > 10000 nM | 49 nM |
| Cc1cccnc1[C@H](C)NC(=O)c1cccc(NCc2nnc(-c3ccncn3)n2C)c1 | 15 nM | > 30000 nM | – |
| COc1cccc([C@H](C)NC(=O)c2cccc(NCc3nnc(-c4ccncc4)n3CCO)c2)c1 | 2.99 nM | > 30000 nM | – |
| Cc1nccn1-c1ncccc1CNC(=O)c1cccc(NCc2nnc(-c3ccncn3)n2C)c1 | 58.8 nM | > 25800 nM | – |
| CC(NC(=O)c1cccc(NCc2nnc(-c3ccncc3)[nH]2)c1)c1cnco1 (stereo not drawn) | – | > 10000 nM | 24 nM |
| Cn1c(CNc2cccc(C(=O)N[C@H]3CCOc4ccc(C(F)(F)F)cc43)c2)nnc1-c1ccncn1 | – | 28500 nM | 834 nM |
| COc1cccc2c1CCC2NC(=O)c1cccc(NCc2nnc(-c3ccncn3)n2C)c1 (stereo not drawn) | – | 543 nM | 15 nM |
| Cn1c(CNc2cccc(C(=O)NCc3c(F)ccc4[nH]cnc34)c2)nnc1-c1ccncn1 | 19.2 nM | 22600 nM | – |
| Cn1c(CNc2cccc(C(=O)N[C@H]3COCc4ccccc43)c2)nnc1-c1ccncn1 | 66 nM | > 11800 nM | – |
| CC(NC(=O)c1cccc(NCc2nnc(-c3ccncn3)n2C)c1)c1ccsc1 (stereo not drawn) | – | > 10000 nM | 4.9 nM |
| COc1cccc(C)c1CNC(=O)c1cccc(NCc2nnc(-c3ccncn3)n2C)c1 | 8.2 nM | 246 nM | – |
| COc1cccc([C@H](C)NC(=O)c2ccnc(NCc3nnc(-c4ccncn4)n3C)c2)c1 | 125 nM | 8000 nM | – |
| Cc1cccnc1CNC(=O)c1cccc(NCc2nnc(-c3ccncn3)n2C)c1 [drawing 264] | – | 1610 nM | 14 nM |
| CNS(=O)(=O)c1cccc(F)c1CNC(=O)c1cccc(NCc2nnc(-c3ccncc3)n2C)c1 | – | 1240 nM | 15.2 nM |
| Cn1c(CNc2cccc(C(=O)NC3CS(=O)(=O)c4ccccc43)c2)nnc1-c1ccncn1 (stereo not drawn) | 20.2 nM | 1440 nM | – |
| CCn1ncc(Cl)c1CNC(=O)c1cccc(NCc2nnc(-c3ccncc3)[nH]2)c1 | – | 560 nM | 12 nM |
| Cn1ccc(CNC(=O)c2cccc(NCc3nnc(-c4ccncn4)n3C)c2)n1 | – | 1290 nM | 60 nM |
| Cc1cnc(CNC(=O)c2cccc(NCc3nnc(-c4ccncn4)n3C)c2)c(C)c1 | – | > 10000 nM | 10 nM |
| Cn1c(CNc2cccc(C(=O)NCc3cccc4c3CCOC4)c2)nnc1-c1ccncn1 | 8.5 nM | > 30000 nM | – |
| Cn1c(CNc2cccc(C(=O)N[C@H]3CCOc4c(F)cccc43)c2)nnc1-c1ccncn1 | – | 1230 nM | 11 nM |
| CN(C)c1ccccc1CNC(=O)c1cccc(NCc2nnc(-c3ccncn3)n2C)c1 | 14.8 nM | 1610 nM | – |
